Columns and labels:
[1] = test system: ATF4 expression, HEK293T cells carrying the ATF4 luciferase reporter; experiment: ATF4 expression inhibition assay (ATF4 luciferase reporter); type: cell-based; conditions: Homo sapiens, HEK-293T, 100 nM thapsigargin, 3 hours
Description: The ATF4 reporter was prepared by fusing the human full length 5′UTR of ATF4 (NCBI Accession No. BC022088.2) upstream of the firefly luciferase coding sequence lacking the initiator methionine. The fused sequence was cloned into pLenti-EFla-C-Myc-DDK-IRES-Puro cloning vector (Origen #PS100085) using standard methods. Virus production was carried out by using Lenti-X™ Packaging Single Shots Protocol (Clonetech #631276). Viral particles were used to transduce HEK293T cells (ATCC #CRL-3216, ATCC Manassas, Va.), which were subsequently selected with puromycin to generate stable cell line. Cells were maintained at 37° C. and 5% CO2 in DMEM-F12 (Hyclone #SH30023.02) supplemented with 10% heat-inactivated fetal bovine serum (Gibco #16000-044), 2 mM L-glutamine (Gibco #25030-081), 100 U/ml penicillin, and 100 μg/ml streptomycin (Gibco #^15140-122).
HEK293T cells carrying the ATF4 luciferase reporter were plated on 96-well plates (Nunc) at 10,000 cells per well. Cells were treated two days after seeding with 100 nM thapsigargin (Tg) (Sigma-Aldrich #T9033) in the presence of different concentrations of selected compounds ranging from 1 nM to 10 μM. Cells without treatment or cells treated with Tg alone were used as controls. Assay plates containing cells were incubated for 3 hours at 37° C.
Luciferase reactions were performed using Luciferase Assay System (Promega #E1501) as specified by the manufacturer. Luminescence was read with an integration time of 1 s and a gain of 110 using a Cytation-5 multi-mode microplate reader (BioTek). Relative luminescence units were normalized to Tg treatment (0% inhibition) and untreated cells (100% inhibition) and the percentage of ATF4 inhibition was calculated.
Accordingly, inhibition of ATF4 expression as a result of the test compound indicates suppression of the ISR pathway.

[2] = test system: Chinese hamster ovary (CHO) cells; experiment: Protein synthesis assay (puromycin incorporation, western blot); type: cell-based; conditions: 2 hours, media alone = 100%; for activity at 1 µM: Cricetulus griseus, unstressed CHO cells (without Tg), 1 μM test compound, read-out: % Protein synthesis relative to untreated (1 μM test compound); for % Recovery of protein synthesis (1 μM test compound): stressed CHO cells, 300 nM Tg plus 1 μM test compound, Tg alone = 0%
Description: Chinese hamster ovary (CHO) cells were maintained at 37° C. and 5% CO2 in Dulbecco's Modified Eagle's Media (DMEM) supplemented with 10% fetal bovine serum, 2 mM L-glutamine, 100 U/ml penicillin, and 100 μg/ml streptomycin. After reaching 80% of confluence, cells were detached and seeded on 6 well plates in complete media, allowed to recover overnight and treated for 2 hours with 1 μM of the test compound (to assess protein synthesis levels in unstressed condition), or for 2 hours with 300 nM Tg in the presence of 1 μM of the test compound (to assess the recovery of protein synthesis in a stressed condition). Cells with Tg alone were used as controls.
After the 2 hours treatments, media were replaced by adding 10 μg/ml puromycin (Sigma Aldrich #P8833) in complete media for 30 min. Media were removed and cells were lysed with SDS-PAGE lysis buffer. Lysates were transferred to 1.5 ml tubes and sonicated for 3 min and total protein amount were quantified using BCA Protein Assay Kit (Pierce). Equal amount of protein (30 μg) was loaded on SDS-PAGE gels. Proteins were transferred onto […] PVDF membranes (BioRad) and probed with primary antibodies diluted in Tris-buffered saline supplemented with 0.1% Tween 20 (Merck #S6996184 505) and 3% bovine serum albumin (Rockland #BSA-50).
Puromycin (12D10) (Merck #MABE343) and j-actin (Sigma Aldrich #A5441) antibodies were used as primary antibody. A HRP-conjugated secondary antibody (Rockland) was employed to detect immune-reactive bands using enhanced chemiluminescence (ECL Western Blotting Substrate, Pierce). Quantification of protein bands was done by densitometry using ImageJ software.
Percent increase of protein synthesis in unstressed cells (without Tg treatment) in the presence of media alone or certain test compounds is shown in Table 3. The percentage levels were normalized to the media alone condition, which correspond to 100% protein synthesis.
Percent recovery of protein synthesis in stressed cells (with Tg treatment) due to the test compounds at 1 μM is also shown in Table 3. The levels were normalized to the media alone and Tg alone conditions, which correspond to 100% and 0% respectively.

Structure (SMILES) | IC50 [1] [nM] | activity at 1 µM [2] [%] | % Recovery of protein synthesis (1 μM test compound) [2] [%]
NC(COc1ccc(Cl)c(F)c1)CN1CCC(NC(=O)c2ccc3cc(Cl)ccc3n2)CC1 (centres unmarked) [Compound 1, N-(1-(2-amino-3-(4-chloro-3-fluorophenoxy)propyl)piperidin-4-yl)-6-chloroquinoline-2-carboxamide] | > 1000 | 167 | 233.4
O=C(COc1ccc(Cl)c(F)c1)NC1CC2CCC1CN2CC(O)COc1ccc(Cl)c(F)c1 (centres unmarked) [Compound 2, 2-(4-chloro-3-fluorophenoxy)-N-(2-(3-(4-chloro-3-fluorophenoxy)-2-hydroxypropyl)-2-azabicyclo[2.2.2]octan-5-yl)acetamide] | < 1000 | 98.3 | 252.0
O=C(COc1ccc(Cl)c(F)c1)N[C@H]1CC[C@H](NC(=O)c2nc3ccc(Cl)cc3[nH]2)CC1 [Compound 3, trans-6-chloro-N-(4-(2-(4-chloro-3-fluorophenoxy)acetamido)cyclohexyl)-1H-benzo[d]imidazole-2-carboxamide] | < 1000 | 120 | 109.9
O=C(NC1CCN(CC(O)COc2ccc(Cl)c(F)c2)CC1)c1nc2ccc(Cl)cc2[nH]1 (centres unmarked) [Compound 4, 6-chloro-N-(1-(3-(4-chloro-3-fluorophenoxy)-2-hydroxypropyl)piperidin-4-yl)-1H-benzo[d]imidazole-2-carboxamide] | < 1000 | 164 | 246.6
O=C(COc1ccc(Cl)c(F)c1)NCC1CCN(CC(O)COc2ccc(Cl)c(F)c2)CC1 (centres unmarked) [Compound 5, 2-(4-chloro-3-fluorophenoxy)-N-((1-(3-(4-chloro-3-fluorophenoxy)-2-hydroxypropyl)piperidin-4-yl)methyl)acetamide] | > 1000 | 82.5 | 71.9
O=C(NCC1CCN(CC(O)COc2ccc(Cl)c(F)c2)CC1)c1cc2cc(Cl)ccc2o1 (centres unmarked) [Compound 6, 5-chloro-N-((1-(3-(4-chloro-3-fluorophenoxy)-2-hydroxypropyl)piperidin-4-yl)methyl)benzofuran-2-carboxamide] | < 1000 | 179 | 
O=C(NCC1CCN(CC(O)COc2ccc(Cl)c(F)c2)CC1)c1ccc2cc(Cl)ccc2n1 (centres unmarked) [Compound 7, 6-chloro-N-((1-(3-(4-chloro-3-fluorophenoxy)-2-hydroxypropyl)piperidin-4-yl)methyl)quinoline-2-carboxamide] | > 1000 | 114 | 131.9
O=C(N[C@H]1CC[C@H](NCC(O)COc2ccc(Cl)cc2)CC1)c1nc2ccc(Cl)cc2[nH]1 (stereo partly drawn) [Compound 8, trans-6-chloro-N-(4-((3-(4-chlorophenoxy)-2-hydroxypropyl)amino)cyclohexyl)-1H-benzo[d]imidazole-2-carboxamide] | > 1000 | 175 | 128.3
O=C(COc1ccc(Cl)c(F)c1)NC[C@H]1CC[C@H](NC(=O)COc2ccc(Cl)c(F)c2)CC1 [Compound 9, trans-2-(4-chloro-3-fluorophenoxy)-N-((4-(2-(4-chloro-3-fluorophenoxy)acetamido)cyclohexyl)methyl)acetamide] | 72.4 | 119 | 26.1
O=C(COc1ccc(Cl)c(F)c1)NC[C@H]1CC[C@H](NC(=O)c2ccc3cc(Cl)ccc3n2)CC1 [Compound 12, trans-6-chloro-N-(4-((2-(4-chloro-3-fluorophenoxy)acetamido)methyl)cyclohexyl)quinoline-2-carboxamide] | 120 | 200 | 187.4
O=C(COc1ccc(Cl)c(F)c1)NC[C@H]1CC[C@H](NC(=O)c2cc3cc(Cl)ccc3o2)CC1 [Compound 13, trans-5-chloro-N-(4-((2-(4-chloro-3-fluorophenoxy)acetamido)methyl)cyclohexyl)benzofuran-2-carboxamide] | 19 | 129 | 120.4
O=C(COc1ccc(Cl)c(F)c1)NC[C@H]1CC[C@H](NCC(O)COc2ccc(Cl)c(F)c2)CC1 (stereo partly drawn) [Compound 14, trans-2-(4-chloro-3-fluorophenoxy)-N-((4-((3-(4-chloro-3-fluorophenoxy)-2-hydroxypropyl)amino)cyclohexyl)methyl)acetamide] | > 10000 | 150 | 53.2
O=C(COc1ccc(Cl)cc1)N[C@H]1CC[C@H](CNC(=O)c2cc3cc(Cl)ccc3o2)CC1 [Compound 15, trans-5-chloro-N-((4-(2-(4-chlorophenoxy)acetamido)cyclohexyl)methyl)benzofuran-2-carboxamide] | 1.45 | 204 | 176.3
COc1ccc2oc(C(=O)NC[C@H]3CC[C@H](NC(=O)COc4ccc(Cl)c(F)c4)CC3)cc2c1 [Compound 16, trans-N-((4-(2-(4-chloro-3-fluorophenoxy)acetamido)cyclohexyl)methyl)-5-methoxybenzofuran-2-carboxamide] | 5.25 | 147 | 102.4
O=C(COc1ccc(Cl)c(F)c1)N[C@H]1CC[C@H](CNC(=O)c2ccc(Cl)cc2)CC1 [Compound 17, trans-4-chloro-N-((4-(2-(4-chloro-3-fluorophenoxy)acetamido)cyclohexyl)methyl)benzamide] | 2.36 | 96.5 | 49.5
O=C(COc1ccc(Cl)c(F)c1)N[C@H]1CC[C@H](CNC(=O)c2ccc(OC(F)(F)F)cc2)CC1 [Compound 18, trans-N-((4-(2-(4-chloro-3-fluorophenoxy)acetamido)cyclohexyl)methyl)-4-(trifluoromethoxy)benzamide] | 5.63 | 105 | 60.0
O=C(COc1ccc(Cl)c(F)c1)N[C@H]1CC[C@H](CNC(=O)c2ccc(Cl)cn2)CC1 [Compound 19, trans-5-chloro-N-((4-(2-(4-chloro-3-fluorophenoxy)acetamido)cyclohexyl)methyl)picolinamide] | 20.1 | 131 | 32.5
O=C(COc1ccc(Cl)c(F)c1)N[C@H]1CC[C@H](CNC(=O)c2ccc(C(F)(F)F)cn2)CC1 [Compound 20, trans-N-((4-(2-(4-chloro-3-fluorophenoxy)acetamido)cyclohexyl)methyl)-5-(trifluoromethyl)picolinamide] | 2.43 | 75.6 | 34.8
O=C(COc1ccc(Cl)c(F)c1)N[C@H]1CC[C@H](CNC(=O)c2cnc(C(F)F)cn2)CC1 [Compound 21, trans-N-((4-(2-(4-chloro-3-fluorophenoxy)acetamido)cyclohexyl)methyl)-5-(difluoromethyl)pyrazine-2-carboxamide] | 17.8 | 67.8 | 11.4
